15 molecules from PubChem BioAssay (NCI) can be followed below.

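Five compound concentrations were applied to cells in 96-well plates for 48 hours; endpoints were derived by simple linear interpolation of the resulting dose-response curve. At the TGI there is no net growth.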

The subject of one assay is HOP-62 NSCLC. As to the kind of experiment: growth of human tumour cells (NCI), 48 h.
Molecule `O=c1cc(CO)oc(C(O)c2ccccc2)c1O` (configuration not stated) returned a TGI of over 100 µM.

The next assay concerns HOP-92 NSCLC. As to the kind of experiment: growth of human tumour cells (NCI), 48 h.
Molecule `O=C1c2cccc3cccc(c23)C2NCCCN12` (configuration not stated) showed a TGI of over 100 µM.
Molecule `CCCCCC(=O)CCCCCCCC(O)CC(=O)OCC` (configuration not stated) gave a TGI of over 100 µM.
`COc1ccc(-c2nc(-c3cc4c(ccc5ccccc54)oc3=O)cs2)cc1`: the TGI was over 100 µM.
As to `Cc1nn(C(=O)c2ccc(Cl)cc2)c2c1C(/C=C/c1ccccc1)SC(N)=N2` (configuration not stated), the TGI was over 10 µM.
The molecule `Cc1cc(C)c(C(=O)c2nnc3ccccc3c2N)c(C)c1` returned a TGI of 52.9 µM.
`O=C1NC(=O)C(c2c[nH]c3ccccc23)=C1c1cn(C(c2ccccc2)(c2ccccc2)c2ccccc2)cn1` yielded a TGI of 21.9 µM.
With `Cc1cc(C)c2c(c1)C/C(=C\c1ccccc1C(=O)O)C2=O`, the TGI is over 100 µM.
In the case of `CCOC(=O)c1nc2ccc(C(F)(F)F)cc2[nH]c1=O`, the TGI was over 100 µM.
The molecule `Cc1cn(C2CC(O)C(CO[Si](C)(C)C(C)(C)C)OC2OC(C)C)c(=O)[nH]c1=O` (configuration not stated) displayed a TGI of 79.4 µM.
Consider `COC(=O)C1(C(=O)OC)C/C(C)=C(/C)SCCCS1`, for which the TGI was over 100 µM.
Same read-out and setting: then `O=c1cc(CO)oc(C(O)c2ccccc2)c1O` (configuration not stated), with over 100 µM.

Another assay relates to OVCAR-5 ovarian. Put plainly: growth of human tumour cells (NCI), 48 h.
In turn, `CC(C)N(C(=O)C1(O)c2ccccc2C=Cc2ccccc21)C(C)C` returned a TGI of 27.9 µM.
Molecule `O=C1c2cccc3cccc(c23)C2NCCCN12` (configuration not stated) gave a TGI of over 100 µM.
As to `CCCCCC(=O)CCCCCCCC(O)CC(=O)OCC` (configuration not stated), the TGI is over 100 µM.
Still for that read-out and setting: to `COc1ccc(-c2nc(-c3cc4c(ccc5ccccc54)oc3=O)cs2)cc1` belongs over 100 µM; to `CC(=O)N(CCc1ccccc1)C(C#N)c1ccccc1` (configuration not stated), over 100 µM; to `Cc1nn(C(=O)c2ccc(Cl)cc2)c2c1C(/C=C/c1ccccc1)SC(N)=N2` (configuration not stated), over 10 µM.
`Cc1cc(C)c(C(=O)c2nnc3ccccc3c2N)c(C)c1` had a TGI of over 100 µM.
On the same count and under the same terms, then `O=C1NC(=O)C(c2c[nH]c3ccccc23)=C1c1cn(C(c2ccccc2)(c2ccccc2)c2ccccc2)cn1`, with 23.1 µM.
Turning to `Cc1cc(C)c2c(c1)C/C(=C\c1ccccc1C(=O)O)C2=O`, the TGI is over 100 µM.
The molecule `CCOC(=O)c1nc2ccc(C(F)(F)F)cc2[nH]c1=O` returned a TGI of over 100 µM.
Consider `Cc1cn(C2CC(O)C(CO[Si](C)(C)C(C)(C)C)OC2OC(C)C)c(=O)[nH]c1=O` (configuration not stated), for which the TGI was over 100 µM.
`Cc1nc2ccc(NC(=S)Nc3ccccc3)cc2c(=O)n1-c1ccccc1` yielded a TGI of over 100 µM.
Take `COC(=O)C1(C(=O)OC)C/C(C)=C(/C)SCCCS1`: the TGI was over 100 µM.
On to `O=c1cc(CO)oc(C(O)c2ccccc2)c1O` (configuration not stated), for which the TGI was over 100 µM.

A further assay has as its system HS 578T breast. Put plainly: growth of human tumour cells (NCI), 48 h.
Molecule `Cc1nn(C(=O)Cc2ccccc2)c2c1C(c1ccc(Cl)cc1)SC(N)=N2` (configuration not stated) returned a TGI of over 100 µM.
`CC(C)N(C(=O)C1(O)c2ccccc2C=Cc2ccccc21)C(C)C` showed a TGI of 68.8 µM.
The same measure, in the same setting: then `O=C1c2cccc3cccc(c23)C2NCCCN12` (configuration not stated), with over 100 µM; and `CCCCCC(=O)CCCCCCCC(O)CC(=O)OCC` (configuration not stated), with over 100 µM.
On the same count and under the same terms, then `COc1ccc(-c2nc(-c3cc4c(ccc5ccccc54)oc3=O)cs2)cc1`, with over 100 µM; and `CC(=O)N(CCc1ccccc1)C(C#N)c1ccccc1` (configuration not stated), with over 100 µM.
For the molecule `Cc1nn(C(=O)c2ccc(Cl)cc2)c2c1C(/C=C/c1ccccc1)SC(N)=N2` (configuration not stated), the TGI was over 10 µM.
Regarding `Cc1cc(C)c(C(=O)c2nnc3ccccc3c2N)c(C)c1`, the TGI was 57.3 µM.
As to `O=C1NC(=O)C(c2c[nH]c3ccccc23)=C1c1cn(C(c2ccccc2)(c2ccccc2)c2ccccc2)cn1`, the TGI was determined as 68.2 µM.
Same read-out and setting: then `Cc1cc(C)c2c(c1)C/C(=C\c1ccccc1C(=O)O)C2=O`, with over 100 µM.
Molecule `CCOC(=O)c1nc2ccc(C(F)(F)F)cc2[nH]c1=O` gave a TGI of over 100 µM.
As for `Cc1cn(C2CC(O)C(CO[Si](C)(C)C(C)(C)C)OC2OC(C)C)c(=O)[nH]c1=O` (configuration not stated), the TGI was over 100 µM.
The molecule `Cc1nc2ccc(NC(=S)Nc3ccccc3)cc2c(=O)n1-c1ccccc1` displayed a TGI of over 100 µM.
Consider `COC(=O)C1(C(=O)OC)C/C(C)=C(/C)SCCCS1`, for which the TGI was over 100 µM.
In turn, `O=c1cc(CO)oc(C(O)c2ccccc2)c1O` (configuration not stated) gave a TGI of over 100 µM.

The test system of the next assay is EKVX NSCLC. Put plainly: growth of human tumour cells (NCI), 48 h.
Molecule `Cc1nn(C(=O)Cc2ccccc2)c2c1C(c1ccc(Cl)cc1)SC(N)=N2` (configuration not stated) yielded a TGI of over 100 µM.
As for `CC(C)N(C(=O)C1(O)c2ccccc2C=Cc2ccccc21)C(C)C`, the TGI came to 32.5 µM.
In turn, `O=C1c2cccc3cccc(c23)C2NCCCN12` (configuration not stated) registered a TGI of over 100 µM.
In turn, `COc1ccc(-c2nc(-c3cc4c(ccc5ccccc54)oc3=O)cs2)cc1` came in with a TGI of over 100 µM.
With `CC(=O)N(CCc1ccccc1)C(C#N)c1ccccc1` (configuration not stated), the TGI was over 100 µM.
On the same count and under the same terms, to `Cc1nn(C(=O)c2ccc(Cl)cc2)c2c1C(/C=C/c1ccccc1)SC(N)=N2` (configuration not stated) belongs over 10 µM.
Regarding `O=C1NC(=O)C(c2c[nH]c3ccccc23)=C1c1cn(C(c2ccccc2)(c2ccccc2)c2ccccc2)cn1`, the TGI turned out to be 19.4 µM.
The same measure, in the same setting: then `Cc1cc(C)c2c(c1)C/C(=C\c1ccccc1C(=O)O)C2=O`, with over 100 µM.
On to `Cc1cn(C2CC(O)C(CO[Si](C)(C)C(C)(C)C)OC2OC(C)C)c(=O)[nH]c1=O` (configuration not stated), for which the TGI is over 100 µM.
`Cc1nc2ccc(NC(=S)Nc3ccccc3)cc2c(=O)n1-c1ccccc1`: the TGI was over 100 µM.
`COC(=O)C1(C(=O)OC)C/C(C)=C(/C)SCCCS1` had a TGI of over 100 µM.

The test system of another assay is RPMI-8226 leukemia. As to the kind of experiment: growth of human tumour cells (NCI), 48 h.
On to `Cc1nn(C(=O)Cc2ccccc2)c2c1C(c1ccc(Cl)cc1)SC(N)=N2` (configuration not stated), for which the TGI was over 100 µM.
Turning to `CC(C)N(C(=O)C1(O)c2ccccc2C=Cc2ccccc21)C(C)C`, the TGI was over 100 µM.
Still for that read-out and setting: then `CCCCCC(=O)CCCCCCCC(O)CC(=O)OCC` (configuration not stated), with over 100 µM.
`COc1ccc(-c2nc(-c3cc4c(ccc5ccccc54)oc3=O)cs2)cc1` gave a TGI of over 100 µM.
In the case of `CC(=O)N(CCc1ccccc1)C(C#N)c1ccccc1` (configuration not stated), the TGI was over 100 µM.
`Cc1nn(C(=O)c2ccc(Cl)cc2)c2c1C(/C=C/c1ccccc1)SC(N)=N2` (configuration not stated) had a TGI of over 10 µM.
Still for that read-out and setting: then `Cc1cc(C)c(C(=O)c2nnc3ccccc3c2N)c(C)c1`, with over 100 µM; and `O=C1NC(=O)C(c2c[nH]c3ccccc23)=C1c1cn(C(c2ccccc2)(c2ccccc2)c2ccccc2)cn1`, with 10.4 µM; and `Cc1cc(C)c2c(c1)C/C(=C\c1ccccc1C(=O)O)C2=O`, with over 100 µM.
`CCOC(=O)c1nc2ccc(C(F)(F)F)cc2[nH]c1=O` came in with a TGI of over 100 µM.
Molecule `Cc1cn(C2CC(O)C(CO[Si](C)(C)C(C)(C)C)OC2OC(C)C)c(=O)[nH]c1=O` (configuration not stated) displayed a TGI of 78.2 µM.
`Cc1nc2ccc(NC(=S)Nc3ccccc3)cc2c(=O)n1-c1ccccc1` yielded a TGI of 94.6 µM.
Take `O=c1cc(CO)oc(C(O)c2ccccc2)c1O` (configuration not stated): the TGI was over 100 µM.

For a further assay, the system named is SK-MEL-28 melanoma. As to the kind of experiment: growth of human tumour cells (NCI), 48 h.
Molecule `Cc1nn(C(=O)Cc2ccccc2)c2c1C(c1ccc(Cl)cc1)SC(N)=N2` (configuration not stated) showed a TGI of over 100 µM.
The same measure, in the same setting: then `CC(C)N(C(=O)C1(O)c2ccccc2C=Cc2ccccc21)C(C)C`, with 31.4 µM.
